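Where inhibition never reached the appropriate level, the endpoint shown equals the highest concentration tested. Otherwise, values were interpolated linearly from a five-concentration, 48-hour dose response in 96-well plates. TGI denotes the concentration required for complete inhibition of growth.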
Tests used:
Assay in all cases: NCI-60 cell line screen, 48 h
[1] = system: SR leukemia
[2] = system: CCRF-CEM leukemia
[3] = system: K-562 leukemia
[4] = system: COLO 205 colon
[5] = system: UO-31 renal
[6] = system: U251 CNS
[7] = system: RXF-631 renal
[8] = system: 786-0 renal
[9] = system: DMS 114 small cell lung
[10] = system: LOX IMVI melanoma
[11] = system: HCT-116 colon
[12] = system: NCI-H522 lung
[13] = system: LXFL 529 NSCLC
[14] = system: SW-620 colon
[15] = system: HT29 colon
[16] = system: OVCAR-5 ovarian
[17] = system: A549 NSCLC
[18] = system: SNB-78 CNS
[19] = system: HOP-18 NSCLC
[20] = system: HCT-15 colon
[21] = system: HOP-92 NSCLC
[22] = system: SK-OV-3 ovarian
[23] = system: OVCAR-8 ovarian
[24] = system: UACC-62 melanoma
[25] = system: SK-MEL-28 melanoma
[26] = system: KM12 colon
[27] = system: EKVX NSCLC
[28] = system: M19-MEL melanoma
[29] = system: SF-539 CNS
[30] = system: OVCAR-3 ovarian
[31] = system: HCC-2998 colon
[32] = system: HOP-62 NSCLC
[33] = system: XF 498 CNS
[34] = system: CAKI-1 renal
[35] = system: RXF 393 renal
[36] = system: NCI-H226 lung
[37] = system: MALME-3M melanoma
[38] = system: A498 renal
[39] = system: SK-MEL-2 melanoma
[40] = system: HL-60(TB) leukemia
[41] = system: NCI-H23 lung
[42] = system: DMS 273 small cell lung
[43] = system: IGROV1 ovarian
[44] = system: TK-10 renal
[45] = system: SNB-75 CNS
[46] = system: SN12C renal
[47] = system: RPMI-8226 leukemia
[48] = system: KM20L2 colon
[49] = system: OVCAR-4 ovarian
[50] = system: SF-295 CNS
[51] = system: M14 melanoma
[52] = system: SNB-19 CNS
[53] = system: SF-268 CNS
[54] = system: ACHN renal
[55] = system: NCI-H460 lung
[56] = system: SK-MEL-5 melanoma
[57] = system: DLD-1 colon
[58] = system: UACC-257 melanoma
[59] = system: MOLT-4 leukemia

**Q.** How did the TGI [1] turn out when COc1cc2c(cc1OC)C1[C@@H](c3ccccc3)OCN1CC2 (stereo partly drawn) was run?
**A.** > 100 µM

**Q.** What about the TGI [2] of the same compound?
**A.** > 100 µM

**Q.** And the TGI [3]?
**A.** > 63.1 µM

**Q.** And the TGI [4]?
**A.** > 100 µM

**Q.** And the TGI [5]?
**A.** > 100 µM

**Q.** What about the TGI [6] of the same compound?
**A.** > 100 µM

**Q.** And the TGI [7]?
**A.** > 100 µM

**Q.** And the TGI [8]?
**A.** > 100 µM

**Q.** What about the TGI [9] of the same compound?
**A.** > 100 µM

**Q.** And the TGI [10]?
**A.** > 100 µM

**Q.** What about the TGI [11] of the same compound?
**A.** > 100 µM

**Q.** And the TGI [12]?
**A.** > 100 µM

**Q.** And the TGI [13]?
**A.** > 100 µM

**Q.** And the TGI [14]?
**A.** > 100 µM

**Q.** What about the TGI [15] of the same compound?
**A.** > 100 µM

**Q.** And the TGI [16]?
**A.** > 100 µM

**Q.** What about the TGI [17] of the same compound?
**A.** > 100 µM

**Q.** And the TGI [18]?
**A.** > 100 µM

**Q.** And the TGI [19]?
**A.** > 100 µM

**Q.** And the TGI [20]?
**A.** > 100 µM

**Q.** And the TGI [21]?
**A.** > 100 µM

**Q.** What about the TGI [22] of the same compound?
**A.** > 100 µM

**Q.** And the TGI [23]?
**A.** > 100 µM

**Q.** What about the TGI [24] of the same compound?
**A.** > 100 µM

**Q.** And the TGI [25]?
**A.** > 100 µM

**Q.** What about the TGI [26] of the same compound?
**A.** > 100 µM

**Q.** And the TGI [27]?
**A.** > 100 µM

**Q.** And the TGI [28]?
**A.** > 100 µM

**Q.** And the TGI [29]?
**A.** > 100 µM

**Q.** What about the TGI [30] of the same compound?
**A.** > 100 µM

**Q.** What about the TGI [31] of the same compound?
**A.** > 100 µM

**Q.** And the TGI [32]?
**A.** > 100 µM

**Q.** And the TGI [33]?
**A.** > 100 µM

**Q.** What about the TGI [34] of the same compound?
**A.** > 100 µM

**Q.** What about the TGI [35] of the same compound?
**A.** > 100 µM

**Q.** What about the TGI [36] of the same compound?
**A.** > 100 µM

**Q.** What about the TGI [37] of the same compound?
**A.** > 100 µM

**Q.** And the TGI [38]?
**A.** > 100 µM

**Q.** And the TGI [39]?
**A.** > 100 µM

**Q.** And the TGI [40]?
**A.** > 89.8 µM

**Q.** And the TGI [41]?
**A.** > 100 µM

**Q.** And the TGI [42]?
**A.** > 100 µM

**Q.** And the TGI [43]?
**A.** > 100 µM

**Q.** And the TGI [44]?
**A.** > 100 µM

**Q.** And the TGI [45]?
**A.** > 100 µM

**Q.** What about the TGI [46] of the same compound?
**A.** > 100 µM

**Q.** And the TGI [47]?
**A.** 89.9 µM

**Q.** And the TGI [48]?
**A.** > 100 µM

**Q.** What about the TGI [49] of the same compound?
**A.** > 100 µM

**Q.** What about the TGI [50] of the same compound?
**A.** > 100 µM

**Q.** And the TGI [51]?
**A.** > 100 µM

**Q.** What about the TGI [52] of the same compound?
**A.** > 100 µM

**Q.** What about the TGI [53] of the same compound?
**A.** > 100 µM

**Q.** And the TGI [54]?
**A.** > 100 µM

**Q.** And the TGI [55]?
**A.** > 100 µM

**Q.** What about the TGI [56] of the same compound?
**A.** > 100 µM

**Q.** And the TGI [57]?
**A.** > 100 µM

**Q.** What about the TGI [58] of the same compound?
**A.** > 100 µM

**Q.** And the TGI [59]?
**A.** > 100 µM

**Q.** How did the TGI [1] turn out when COc1cc(OC)c2c(c1)C(=O)C(CC1(C)OCCCO1)=CC2=O was run?
**A.** 7.2 µM

**Q.** What about the TGI [2] of the same compound?
**A.** 15.4 µM

**Q.** What about the TGI [3] of the same compound?
**A.** > 69.7 µM

**Q.** And the TGI [4]?
**A.** 27.5 µM

**Q.** And the TGI [5]?
**A.** 24.1 µM

**Q.** What about the TGI [6] of the same compound?
**A.** 31.6 µM

**Q.** And the TGI [7]?
**A.** 44.5 µM

**Q.** And the TGI [8]?
**A.** 21.5 µM

**Q.** And the TGI [9]?
**A.** 15.8 µM

**Q.** What about the TGI [10] of the same compound?
**A.** 12.8 µM

**Q.** And the TGI [11]?
**A.** 17.7 µM

**Q.** And the TGI [12]?
**A.** 10.6 µM

**Q.** And the TGI [13]?
**A.** 18.7 µM

**Q.** What about the TGI [14] of the same compound?
**A.** 20.3 µM

**Q.** And the TGI [15]?
**A.** 28.9 µM

**Q.** What about the TGI [16] of the same compound?
**A.** 30.6 µM

**Q.** What about the TGI [17] of the same compound?
**A.** 34.4 µM

**Q.** What about the TGI [18] of the same compound?
**A.** 26.6 µM

**Q.** What about the TGI [19] of the same compound?
**A.** 25.7 µM

**Q.** What about the TGI [20] of the same compound?
**A.** 16.3 µM

**Q.** And the TGI [21]?
**A.** 7.73 µM

**Q.** What about the TGI [22] of the same compound?
**A.** 34.2 µM

**Q.** What about the TGI [23] of the same compound?
**A.** 22.5 µM

**Q.** What about the TGI [24] of the same compound?
**A.** 16.2 µM

**Q.** What about the TGI [25] of the same compound?
**A.** 23.8 µM

**Q.** And the TGI [26]?
**A.** 28.5 µM

**Q.** What about the TGI [27] of the same compound?
**A.** 28.6 µM

**Q.** And the TGI [28]?
**A.** 13.9 µM

**Q.** What about the TGI [29] of the same compound?
**A.** 25.6 µM

**Q.** What about the TGI [30] of the same compound?
**A.** 21.4 µM

**Q.** And the TGI [31]?
**A.** 32.2 µM

**Q.** What about the TGI [32] of the same compound?
**A.** 33.4 µM

**Q.** What about the TGI [33] of the same compound?
**A.** 18.4 µM

**Q.** And the TGI [34]?
**A.** 18.8 µM

**Q.** And the TGI [35]?
**A.** 10.4 µM

**Q.** And the TGI [36]?
**A.** 36.3 µM

**Q.** And the TGI [37]?
**A.** 20.5 µM

**Q.** And the TGI [38]?
**A.** 32.3 µM

**Q.** And the TGI [39]?
**A.** 30.1 µM

**Q.** And the TGI [40]?
**A.** 7.88 µM

**Q.** What about the TGI [41] of the same compound?
**A.** 27 µM

**Q.** What about the TGI [42] of the same compound?
**A.** 22.5 µM

**Q.** What about the TGI [43] of the same compound?
**A.** 32.2 µM

**Q.** What about the TGI [44] of the same compound?
**A.** 25.1 µM

**Q.** And the TGI [45]?
**A.** 25.3 µM

**Q.** What about the TGI [46] of the same compound?
**A.** 27.2 µM

**Q.** What about the TGI [47] of the same compound?
**A.** 23.3 µM

**Q.** What about the TGI [48] of the same compound?
**A.** 27.7 µM

**Q.** What about the TGI [49] of the same compound?
**A.** 19.7 µM

**Q.** And the TGI [50]?
**A.** 27.8 µM

**Q.** And the TGI [51]?
**A.** 26 µM

**Q.** What about the TGI [52] of the same compound?
**A.** 32.4 µM

**Q.** What about the TGI [53] of the same compound?
**A.** 26.9 µM

**Q.** What about the TGI [54] of the same compound?
**A.** 21.6 µM

**Q.** And the TGI [55]?
**A.** 34.7 µM

**Q.** And the TGI [56]?
**A.** 20.9 µM

**Q.** And the TGI [57]?
**A.** 17.4 µM

**Q.** And the TGI [58]?
**A.** 25.9 µM

**Q.** What about the TGI [59] of the same compound?
**A.** 30.6 µM
